Data taken from article doi:10.1101/2023.10.24.563163v2, “Targeting cancer with small molecule pan-KRAS degraders” (biorxiv, 2024).
Where two headings read alike, the source gives them in different places.

Assays:
KRAS^WT [1] = molecular target: T1, KRAS^WT (Homo sapiens, UniProt P01116); parameters: KRAS degradation by capillary electrophoresis immunodetection; details: read-out: DC50 24 h A375
T1 construct: endogenous wild type

KRAS^G12C = KRAS^G12C (Homo sapiens, UniProt P01116, G12C); parameters: endogenous; KRAS degradation by capillary electrophoresis immunodetection; details: read-out: DC50 24 h NCI-H358
KRAS^G12C, sequence (P01116 whole entry G12C): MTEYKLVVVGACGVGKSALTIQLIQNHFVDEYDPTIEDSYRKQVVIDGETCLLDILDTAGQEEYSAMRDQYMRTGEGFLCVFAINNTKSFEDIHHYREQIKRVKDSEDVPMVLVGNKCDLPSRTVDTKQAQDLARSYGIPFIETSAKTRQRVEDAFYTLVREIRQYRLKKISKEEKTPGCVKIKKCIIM
Experimental: (§1) Protein Detection by Capillary Electrophoresis Cells (50 000) were seeded the day before treatment into 96-well clear-flat bottom plates and incubated overnight (37 °C, humidified tissue culture incubator, 5% CO2). Compounds were added from DMSO stock solution using a digital dispenser and cells are incubated at 37 °C as specified (24 hours for KRAS degradation, 6 hours for determination of pERK levels). At the end of the incubation, medium was removed, cells washed with ice cold PBS, PBS removed and 50 µL lysis buffer (Meso Scale Discovery #R60TX-2) supplemented with 1:100 protease inhibitor solution, 1:100 phosphatase inhibitor I, 1:100 phosphatase inhibitor II (Meso Scale Discovery #R70AA-1), 0.5 µL/mL Benzonase (Novagen #70664-3) and 10 mM dithiothreitol added to each well. Plates with lysis buffer were immediately transferred to -80 °C freezer for at least 2 hours and then thawed on ice. Lysates were transferred to a 96 well V-bottom plate and insoluble debris was pelleted by centrifugation for 20 min. at 4 000 rpm. 40 µL of the supernatant were transferred to a fresh Eppendorf PCR plate. Analysis of protein levels was conducted using the Wes System, ProteinSimple (https://www.bio-techne.com/) as specified by the manufacturer. […]

KRAS wild type = molecular target: T2, KRAS wild type (Homo sapiens, UniProt P01116); parameters: KRAS degradation by capillary electrophoresis (Wes) immunodetection; details: 6 h, degrader
T2 construct: endogenous in A375 / HEK293
T2 sequence (P01116 whole entry): as the sequence (P01116 whole entry G12C) above, with C12G counted along it

KRAS^WT [2] = molecular target: T1, KRAS^WT; parameters: KRAS degradation by capillary electrophoresis immunodetection; details: read-out: DC50 24 h HEK293
Experimental: as §1

[3] = molecular target: T3, VCB:KRAS ternary complex partners (Homo sapiens, UniProt P01116+P40337, P01116:C118S/P01116:G12D); assay: biochemical; parameters: SPR binary and ternary complex binding affinity and kinetics; details: SPR; for kon: read-out: SPR VCB+KRAS^G12D kon [1/(M s)]
T3 construct: VCB (Avi-tagged, biotinylated for SPR) plus KRAS 1-169 C118S GDP; E. coli, His6 tags removed; with Elongin-C; Elongin-B
T3 sequence (Q15370 1-104): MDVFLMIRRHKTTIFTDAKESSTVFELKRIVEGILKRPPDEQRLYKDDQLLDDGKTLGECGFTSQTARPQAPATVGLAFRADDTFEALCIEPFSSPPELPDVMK
T3 sequence (P01116 1-169 G12D/C118S): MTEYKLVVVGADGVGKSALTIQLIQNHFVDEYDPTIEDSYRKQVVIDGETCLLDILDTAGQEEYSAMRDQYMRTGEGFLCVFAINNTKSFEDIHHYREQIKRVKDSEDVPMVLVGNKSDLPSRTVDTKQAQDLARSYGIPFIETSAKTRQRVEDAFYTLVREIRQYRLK
T3 sequence (Q15369 17-112, further chain): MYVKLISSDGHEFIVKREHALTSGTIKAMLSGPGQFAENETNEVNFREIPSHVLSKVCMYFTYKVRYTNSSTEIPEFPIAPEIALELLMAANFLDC
T3 sequence (P40337 54-213): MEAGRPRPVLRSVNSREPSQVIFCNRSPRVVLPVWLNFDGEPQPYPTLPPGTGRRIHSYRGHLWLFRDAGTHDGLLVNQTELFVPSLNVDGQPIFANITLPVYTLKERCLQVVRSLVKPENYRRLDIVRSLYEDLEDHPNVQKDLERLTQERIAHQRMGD
Description: With the objective of identifying molecules that potently degrade multiple KRAS mutants we next sought to employ structure-based design using the solved ternary co-crystal structure of compound 3 to improve ternary complex stability and intracellular VHL engagement. […] Analysis of the VCB:compound 3:KRAS^G12V co-crystal structure (Fig. 1H) highlighted an opportunity to enhance interactions within the ternary complex by improving π-stacking between the exit vector amide of the VHL ligand and Tyr112. We therefore switched the amide for an isoxazole, which has been previously reported to improve VCB affinity in this position in other contexts ([22]), yielding compound 4 (Fig. 2A). A ternary complex co-crystal structure of VCB:compound 4:KRAS^G12V (PDB 8QW7) confirmed a consistent overall binding mode to that observed for compound 3 (RMSD = 0.72 Å), with compound 4 able to engage in π-stacking interaction between the isoxazole and Tyr112 of VCB as designed (Fig. 2B). […] FP, SPR and cellular target engagement studies support a minor improvement in binary VHL engagement for compound 4, with moderate cooperativity retained (fig. S2A-C, table S1). […] We then investigated the impact of these structural changes on degradation kinetics in live HiBiT-tagged GP5d cells (fig. S3A-D). […] Aiming to measure ternary complex stability, we noted that the FP assay reached the limits of quantification due to ternary KD approaching that of the assay probe (fig. S8B).

T1 sequence (P01116 whole entry): as the sequence (P01116 whole entry G12C) above, with C12G counted along it

Row | DC50 (KRAS^WT [1]) [nM] | DC50 (KRAS^G12C) [nM] | DC50 (KRAS wild type; A375) [nM] | DC50 (KRAS wild type; HEK293) [nM] | DC50 (KRAS^WT [2]) [nM] | Kd [3] [nM] | kon [3] [M⁻¹ s⁻¹] | SMILES
1 | 33.4 | 25.1 | 36.7 | 12.8 | 86.7 |  |  | Cc1ncsc1-c1ccc(CNC(=O)[C@@H]2C[C@@H](O)CN2C(=O)[C@@H](c2cc(OCCCCN3CCCN(c4nccc(-c5noc([C@@]6(C)CCCc7sc(N)c(C#N)c76)n5)n4)[C@@H](C)C3)no2)C(C)C)cc1 [compound 4]
2 | 455 | 241 | 751 | > 1000 | > 1000 | 30 ± 6 | 242000 | Cc1ncsc1-c1ccc(CNC(=O)[C@@H]2C[C@@H](O)CN2C(=O)[C@@H](NC(=O)CCCCCN2CCCN(c3nccc(-c4noc([C@@]5(C)CCCc6sc(N)c(C#N)c65)n4)n3)[C@@H](C)C2)C(C)(C)C)cc1 [compound 3]
3 |  |  |  |  |  |  | 224000 | Cc1ncsc1-c1ccc(CNC(=O)[C@@H]2C[C@@H](O)CN2C(=O)[C@@H](NC(=O)COCCCN2CCCN(c3nccc(-c4noc([C@@]5(C)CCCc6sc(N)c(C#N)c65)n4)n3)[C@@H](C)C2)C(C)(C)C)cc1 [compound 2]
